The values that follow come from article PMC11186346, “Conformational flexibility driving charge-selective substrate translocation across a bacterial transporter” (Chemical Science, 2024).

The target of one experiment is T1, native CymA (Klebsiella oxytoca, UniProt Q48391).
T1 construct: full-length mature pore, residues 1-324, purified as described in earlier work, reconstituted in DPhPC planar lipid bilayers; monomeric beta-barrel
T1 sequence (Q48391 23-346): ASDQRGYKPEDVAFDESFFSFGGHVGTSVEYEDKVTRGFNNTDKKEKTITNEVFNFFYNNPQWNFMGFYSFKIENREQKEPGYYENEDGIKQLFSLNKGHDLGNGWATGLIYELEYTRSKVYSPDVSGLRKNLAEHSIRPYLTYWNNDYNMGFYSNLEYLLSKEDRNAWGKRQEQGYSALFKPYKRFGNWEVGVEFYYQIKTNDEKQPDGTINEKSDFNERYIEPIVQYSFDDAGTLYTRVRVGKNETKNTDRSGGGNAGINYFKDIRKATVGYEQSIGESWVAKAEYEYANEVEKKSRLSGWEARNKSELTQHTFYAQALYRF
Nature of the experiment: single-channel electrical recording, planar lipid bilayer. The experiment is classed as biochemical. Particulars: +50 mV.

The target of the next experiment is truncated CymA (ΔN15) (Klebsiella oxytoca, UniProt Q48391). Particulars: +50 mV.
[1] abbreviates: pH 8.0, 1 M KCl, 10 mM HEPES, trans side, mean dwell time of blockage (koff = 1/τoff).
[2] abbreviates: pH 6.0, mean dwell time of blockage.

Each structure is given as a SMILES string. Read-outs that look alike come from different tables or passages of the source.

Consider `NC[C@H]1O[C@@H]2O[C@H]3[C@H](O)[C@@H](O)[C@@H](O[C@H]4[C@H](O)[C@@H](O)[C@@H](O[C@H]5[C@H](O)[C@@H](O)[C@@H](O[C@H]6[C@H](O)[C@@H](O)[C@@H](O[C@H]7[C@H](O)[C@@H](O)[C@@H](O[C@H]1[C@H](O)[C@H]2O)O[C@@H]7CN)O[C@@H]6CN)O[C@@H]5CN)O[C@@H]4CN)O[C@@H]3CN` [am6αCD], for which the τoff was 0.55 ± 0.06 ms at native CymA (setting [1]) and 0.32 ± 0.04 ms on truncated CymA (ΔN15) (setting [1]).
For `OC[C@H]1O[C@@H]2O[C@H]3[C@H](O)[C@@H](O)[C@@H](O[C@H]4[C@H](O)[C@@H](O)[C@@H](O[C@H]5[C@H](O)[C@@H](O)[C@@H](O[C@H]6[C@H](O)[C@@H](O)[C@@H](O[C@H]7[C@H](O)[C@@H](O)[C@@H](O[C@H]1[C@H](O)[C@H]2O)O[C@@H]7CO)O[C@@H]6CO)O[C@@H]5CO)O[C@@H]4CO)O[C@@H]3CO` [αCD], the τoff at native CymA (setting [2]) turned out to be 0.620 ± 0.05 ms; on truncated CymA (ΔN15) (setting [2]), 0.4500 ± 0.04 ms.
